From PubChem BioAssay (NCI)
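Five concentrations, 48 hours, 96-well plates. GI50: concentration for 50% inhibition of growth. TGI: concentration producing complete growth inhibition.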

Assays:
Test in all cases: NCI anticancer screen, dose series, 48 h
COLO 205 colon = tested on: COLO 205 colon
SF-295 CNS = tested on: SF-295 CNS
OVCAR-8 ovarian = tested on: OVCAR-8 ovarian
A498 renal = tested on: A498 renal
MOLT-4 leukemia = tested on: MOLT-4 leukemia
MCF7 breast = tested on: MCF7 breast
M14 melanoma = tested on: M14 melanoma
BT-549 breast = tested on: BT-549 breast

## O=C(CN1CCN(c2ncccn2)CC1)Nc1ccc(Cl)cc1C(=O)c1ccccc1Cl
COLO 205 colon
  GI50: > 100 µM
  TGI: > 100 µM
SF-295 CNS
  GI50: > 100 µM
  TGI: > 100 µM
OVCAR-8 ovarian
  GI50: > 100 µM
  TGI: > 100 µM
A498 renal
  GI50: > 100 µM
  TGI: > 100 µM
MOLT-4 leukemia
  GI50: 21.9 µM
  TGI: > 100 µM
MCF7 breast
  GI50: 83.3 µM
  TGI: > 100 µM
M14 melanoma
  GI50: > 100 µM
  TGI: > 100 µM
BT-549 breast
  GI50: > 100 µM
  TGI: > 100 µM

## O=[N+]([O-])c1ccc(C(c2c[nH]c3ccccc23)c2c[nH]c3ccccc23)cc1
COLO 205 colon
  TGI: 21.8 µM
SF-295 CNS
  TGI: > 100 µM
OVCAR-8 ovarian
  TGI: 33.2 µM
A498 renal
  TGI: 30.1 µM
MOLT-4 leukemia
  TGI: 40.9 µM
MCF7 breast
  TGI: 7.4 µM
M14 melanoma
  TGI: 33.2 µM
BT-549 breast
  TGI: 14.3 µM

## Nc1nc(SCc2ccccn2)c2ncn(C3CCCC3)c2n1
COLO 205 colon
  TGI: > 100 µM
SF-295 CNS
  TGI: > 100 µM
OVCAR-8 ovarian
  TGI: > 100 µM
A498 renal
  TGI: > 100 µM
MCF7 breast
  TGI: > 100 µM
M14 melanoma
  TGI: > 100 µM
BT-549 breast
  TGI: > 100 µM

## ClCc1cccc(Cn2cnc3c(Cl)ncnc32)c1
COLO 205 colon
  GI50: 3.09 µM
  TGI: 10.5 µM
SF-295 CNS
  GI50: 3.25 µM
  TGI: 8.68 µM
OVCAR-8 ovarian
  GI50: 22.1 µM
  TGI: 42 µM
A498 renal
  GI50: 17.3 µM
  TGI: 31.9 µM
MOLT-4 leukemia
  GI50: 15.8 µM
  TGI: 37.4 µM
MCF7 breast
  GI50: 7.8 µM
  TGI: 77.7 µM
M14 melanoma
  GI50: 1.66 µM
  TGI: 3.31 µM
BT-549 breast
  GI50: 15.3 µM
  TGI: 30.2 µM

## COc1cccc(C2CC(C)(N3CCCC3)Oc3cc4c(cc32)OCO4)c1O (stereo not given)
COLO 205 colon
  TGI: 39.7 µM
SF-295 CNS
  TGI: 59.6 µM
OVCAR-8 ovarian
  TGI: > 73.2 µM
A498 renal
  TGI: > 100 µM
MOLT-4 leukemia
  TGI: > 73.4 µM
MCF7 breast
  TGI: > 91.2 µM
M14 melanoma
  TGI: > 83.8 µM
BT-549 breast
  TGI: 87.7 µM

## N#CCC1COc2ccccc2O1 (stereo not given)
COLO 205 colon
  TGI: > 10 µM
SF-295 CNS
  TGI: > 10 µM
OVCAR-8 ovarian
  TGI: > 10 µM
MOLT-4 leukemia
  TGI: > 10 µM
MCF7 breast
  TGI: > 10 µM
M14 melanoma
  TGI: > 10 µM
BT-549 breast
  TGI: > 10 µM

## COc1cc(C2CC(c3ccc(C)cc3)=NN2C=O)ccc1Oc1ccnc2cc(Cl)ccc12 (stereo not given)
COLO 205 colon
  GI50: > 50 µM
  TGI: > 50 µM
SF-295 CNS
  GI50: 4.41 µM
  TGI: 23.7 µM
A498 renal
  GI50: 5.73 µM
  TGI: 23.1 µM
MOLT-4 leukemia
  GI50: > 50 µM
  TGI: > 50 µM
MCF7 breast
  GI50: > 50 µM
  TGI: > 50 µM
M14 melanoma
  GI50: 14.2 µM
  TGI: > 50 µM
BT-549 breast
  GI50: 3.96 µM
  TGI: > 50 µM

## COc1cc(C2C=C(c3cccc(NC(C)=O)c3)Nc3ncnn32)cc(OC)c1OC (stereo not given)
COLO 205 colon
  GI50: 0.308 µM
  TGI: 1.73 µM
SF-295 CNS
  GI50: 0.229 µM
  TGI: > 32.8 µM
OVCAR-8 ovarian
  GI50: 0.327 µM
  TGI: > 100 µM
A498 renal
  GI50: 0.242 µM
  TGI: 4.67 µM
MOLT-4 leukemia
  GI50: 1.65 µM
  TGI: > 100 µM
MCF7 breast
  GI50: 0.317 µM
  TGI: > 100 µM
M14 melanoma
  GI50: 0.392 µM
  TGI: > 100 µM
BT-549 breast
  GI50: 1.07 µM
  TGI: > 100 µM

## COc1cc(-c2nn(-c3ccc(NC(=O)c4ccc(Cl)c(Cl)c4)cc3)cc2-c2ccncc2)ccc1Cl
COLO 205 colon
  GI50: 3.62 µM
  TGI: > 100 µM
SF-295 CNS
  GI50: 1.94 µM
  TGI: 4.57 µM
OVCAR-8 ovarian
  GI50: 5.28 µM
  TGI: > 100 µM
A498 renal
  GI50: 5.25 µM
  TGI: > 100 µM
MOLT-4 leukemia
  GI50: 5.29 µM
  TGI: > 100 µM
MCF7 breast
  GI50: 5.53 µM
  TGI: > 100 µM
M14 melanoma
  GI50: 22.4 µM
  TGI: > 100 µM
BT-549 breast
  GI50: > 100 µM
  TGI: > 100 µM

## COc1cc2c3c(n(C)c(=O)c2cc1OC)-c1cc2c(cc1/C3=C\CCCCCN)OCO2
COLO 205 colon
  GI50: 5.8 µM
  TGI: > 100 µM
SF-295 CNS
  GI50: 0.887 µM
  TGI: > 42.4 µM
OVCAR-8 ovarian
  TGI: 3.33 µM
A498 renal
  GI50: 10.6 µM
  TGI: 39.4 µM
M14 melanoma
  GI50: 2.55 µM
  TGI: > 46.6 µM
BT-549 breast
  GI50: 6.05 µM
  TGI: 21.3 µM

## CCOC(=O)c1c2c(n3ccc(NC(=O)CCN4CCCC4)cc13)C(=O)c1ncccc1C2=O
SF-295 CNS
  GI50: 1.1 µM
  TGI: 2.67 µM
OVCAR-8 ovarian
  GI50: 1.38 µM
  TGI: 3.49 µM
MOLT-4 leukemia
  GI50: 1.52 µM
  TGI: 4.81 µM
BT-549 breast
  GI50: 1.54 µM
  TGI: 3.64 µM

## C=CCn1c2c(c3ccccc3c1=O)C(=O)c1ccccc1-2
COLO 205 colon
  TGI: > 100 µM
SF-295 CNS
  TGI: > 100 µM
OVCAR-8 ovarian
  TGI: > 100 µM
A498 renal
  TGI: > 100 µM
MOLT-4 leukemia
  TGI: 16.8 µM
MCF7 breast
  TGI: > 100 µM
M14 melanoma
  TGI: > 100 µM
BT-549 breast
  TGI: > 100 µM

## Cc1ccc(-[n+]2c3cc(N)c(C)cc3nc3cc(C)c(Nc4ccccc4)cc32)cc1
COLO 205 colon
  GI50: 0.0461 µM
  TGI: 0.326 µM
SF-295 CNS
  GI50: 0.0646 µM
  TGI: 0.181 µM
OVCAR-8 ovarian
  GI50: 0.103 µM
  TGI: > 100 µM
A498 renal
  GI50: 0.119 µM
  TGI: 0.438 µM
MOLT-4 leukemia
  GI50: 0.244 µM
  TGI: 1.69 µM
M14 melanoma
  GI50: 0.134 µM
  TGI: 0.428 µM
BT-549 breast
  GI50: 0.128 µM
  TGI: 0.717 µM

## COc1ccc2nc(N/N=C(\C)c3ccccn3)cc(C)c2c1
COLO 205 colon
  GI50: 0.024 µM
  TGI: 1.15 µM
SF-295 CNS
  GI50: 0.0487 µM
  TGI: 0.391 µM
OVCAR-8 ovarian
  GI50: 0.286 µM
  TGI: 2.53 µM
A498 renal
  GI50: 0.812 µM
  TGI: 7.02 µM
MOLT-4 leukemia
  GI50: 0.131 µM
  TGI: 0.488 µM
MCF7 breast
  GI50: 0.288 µM
  TGI: 1.07 µM
M14 melanoma
  GI50: 0.212 µM
  TGI: 1.13 µM
BT-549 breast
  GI50: 0.168 µM
  TGI: 1.96 µM

## O=C(Oc1ccc(Cl)cc1Cl)c1ccccc1Nc1ccnc(C(F)(F)F)c1
SF-295 CNS
  GI50: 15.6 µM
  TGI: 37.2 µM
OVCAR-8 ovarian
  GI50: 4.79 µM
  TGI: 30.8 µM
A498 renal
  GI50: 21.5 µM
  TGI: 37.3 µM
MOLT-4 leukemia
  GI50: > 100 µM
  TGI: > 100 µM
MCF7 breast
  GI50: 3.61 µM
  TGI: 17.2 µM
M14 melanoma
  GI50: 1.92 µM
  TGI: 4.93 µM
BT-549 breast
  GI50: 6.7 µM
  TGI: 25.4 µM

## O=C1NCc2ccc3c(-c4cccc(Cl)c4)c[nH]c3c21
COLO 205 colon
  GI50: 0.297 µM
SF-295 CNS
  GI50: 0.199 µM
  TGI: > 50 µM
OVCAR-8 ovarian
  GI50: 0.503 µM
  TGI: > 50 µM
A498 renal
  GI50: 0.058 µM
  TGI: 0.671 µM
MOLT-4 leukemia
  GI50: 0.256 µM
  TGI: > 50 µM
MCF7 breast
  GI50: 0.177 µM
  TGI: > 50 µM
M14 melanoma
  GI50: 0.147 µM
  TGI: > 50 µM
BT-549 breast
  GI50: 0.245 µM
  TGI: > 45.7 µM

## Cc1cc(-c2ncc(CC(=O)Nc3ccc(-c4cnccn4)cn3)cc2C)ccn1
COLO 205 colon
  GI50: 42.8 µM
  TGI: > 100 µM
SF-295 CNS
  GI50: 15.3 µM
  TGI: > 100 µM
OVCAR-8 ovarian
  GI50: 25.6 µM
  TGI: > 100 µM
A498 renal
  GI50: 2.8 µM
  TGI: 65.5 µM
MOLT-4 leukemia
  GI50: 23.9 µM
  TGI: > 100 µM
MCF7 breast
  GI50: 19.1 µM
  TGI: > 100 µM

## CC(=O)n1c(COS(C)(=O)=O)nc2ccccc21
COLO 205 colon
  TGI: > 100 µM
SF-295 CNS
  TGI: > 100 µM
OVCAR-8 ovarian
  TGI: > 100 µM
A498 renal
  TGI: > 100 µM
MCF7 breast
  TGI: > 100 µM
M14 melanoma
  TGI: > 100 µM
BT-549 breast
  TGI: > 100 µM

## COC(=O)N[C@H]1CCc2c(Br)c(OC)c(OC)c(OC)c2-c2ccc(SC)c(=O)cc21
OVCAR-8 ovarian
  GI50: < 0.01 µM
  TGI: > 77.2 µM
A498 renal
  GI50: < 0.01 µM
  TGI: < 0.01 µM
MOLT-4 leukemia
  GI50: < 0.01 µM
  TGI: 21.7 µM
MCF7 breast
  GI50: < 0.01 µM
  TGI: 12.4 µM
M14 melanoma
  GI50: < 0.01 µM
  TGI: 8.53 µM
BT-549 breast
  GI50: < 0.01 µM
  TGI: 14.9 µM
